Test [1] has as its target CDK7/cyclin H/MAT1 complex (Homo sapiens (Human), UniProt P50613). Put plainly: In vitro enzymatic inhibitory activity test, CDK7. The format is biochemical. The following applies: Caliper mobility shift, 180 min at 27° C.
A further test deals with HCC70 cells. Put plainly: Cell bioactivity detection (CyQuant), HCC70. The format is cell-based. The following applies: Homo sapiens, HCC70, 72 h, human breast cancer cells HCC70, 72 hours. In a few lines:
(§1)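 A2780 or HCC70 cells (2000/well, RPMI 1640 + 10% FBS) were seeded overnight, then treated for 72 h at 37° C, 5% CO2 with compound: top 10 μM, 1:4 dilutions, 9 points, 0.2% DMSO. Viable cell number was measured by CyQuant Direct nucleic-acid staining (≥60 min, 37° C) on an Acumen reader at 488 nm excitation, and IC50 was calculated.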

A further test relates to A2780 cells. Nature of the test: Cell bioactivity detection (CyQuant), A2780. The format is cell-based, human. As to conditions: Homo sapiens, A2780, 72 h, ovarian carcinoma cells A2780, 72 hours. In a few lines:
as §1

A further test concerns the target CDK9/CyclinT1 (Homo sapiens (Human), UniProt P50750). Put plainly: In vitro enzymatic inhibitory activity test, CDK9. The format is biochemical. As to conditions: Caliper mobility shift, 180 min at 27° C.
The target of a further test is CDK2/cyclin E1 complex (Homo sapiens (Human), UniProt P24941). Nature of the test: In vitro enzymatic inhibitory activity test, CDK2. The following applies: Caliper mobility shift, 180 min at 27° C. The format is biochemical.
For test [2], the target named is CDK12(aa686-1082)/cyclin K complex (Homo sapiens (Human), UniProt Q9NYV4). Put plainly: In vitro enzymatic inhibitory activity test, CDK12. Type of test: biochemical. As to conditions: Caliper mobility shift, 180 min at 27° C.

Where a name gives a salt, the structure may show the parent alone.

Chain of CDK12(aa686-1082)/cyclin K complex (Q9NYV4 686-1082, species assumed): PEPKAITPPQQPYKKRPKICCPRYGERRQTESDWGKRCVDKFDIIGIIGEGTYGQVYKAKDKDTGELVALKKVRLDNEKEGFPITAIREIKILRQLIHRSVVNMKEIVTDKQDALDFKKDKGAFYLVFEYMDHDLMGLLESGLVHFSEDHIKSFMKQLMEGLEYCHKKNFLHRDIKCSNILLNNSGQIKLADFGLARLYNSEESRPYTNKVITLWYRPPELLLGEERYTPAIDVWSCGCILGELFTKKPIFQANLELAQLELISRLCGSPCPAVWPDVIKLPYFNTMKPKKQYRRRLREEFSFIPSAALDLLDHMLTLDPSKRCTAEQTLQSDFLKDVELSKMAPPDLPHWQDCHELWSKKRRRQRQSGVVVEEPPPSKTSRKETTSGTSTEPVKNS
Chain of CDK12(aa686-1082)/cyclin K complex (O75909 whole entry partner, species assumed, the tested form may be a part): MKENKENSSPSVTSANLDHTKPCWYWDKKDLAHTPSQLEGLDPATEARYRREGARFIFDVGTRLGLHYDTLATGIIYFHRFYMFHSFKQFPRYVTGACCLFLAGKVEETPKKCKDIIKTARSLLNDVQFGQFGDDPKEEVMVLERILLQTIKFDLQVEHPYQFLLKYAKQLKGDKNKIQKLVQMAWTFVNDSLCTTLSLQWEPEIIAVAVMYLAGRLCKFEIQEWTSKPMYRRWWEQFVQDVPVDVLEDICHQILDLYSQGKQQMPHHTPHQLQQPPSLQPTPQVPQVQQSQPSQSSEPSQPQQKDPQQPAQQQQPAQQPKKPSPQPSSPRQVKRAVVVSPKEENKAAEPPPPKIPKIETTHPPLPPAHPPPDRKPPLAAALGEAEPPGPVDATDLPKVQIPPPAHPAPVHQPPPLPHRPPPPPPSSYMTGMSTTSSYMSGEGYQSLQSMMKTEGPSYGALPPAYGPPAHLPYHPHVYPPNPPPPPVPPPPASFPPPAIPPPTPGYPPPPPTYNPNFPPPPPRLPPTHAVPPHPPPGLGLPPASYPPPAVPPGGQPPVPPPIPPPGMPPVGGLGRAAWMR
Chain of CDK9/CyclinT1 (P50750 whole entry, species assumed): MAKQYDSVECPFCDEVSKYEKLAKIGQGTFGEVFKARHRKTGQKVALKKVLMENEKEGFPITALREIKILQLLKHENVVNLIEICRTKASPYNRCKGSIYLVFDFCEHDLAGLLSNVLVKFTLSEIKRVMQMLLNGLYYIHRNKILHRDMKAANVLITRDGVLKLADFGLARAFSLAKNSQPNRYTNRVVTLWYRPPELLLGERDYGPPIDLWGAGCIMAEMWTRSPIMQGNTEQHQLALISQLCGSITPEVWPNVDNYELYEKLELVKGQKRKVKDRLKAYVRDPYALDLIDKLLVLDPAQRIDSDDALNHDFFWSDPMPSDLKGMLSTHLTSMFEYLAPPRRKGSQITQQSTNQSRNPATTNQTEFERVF
Chain of CDK9/CyclinT1 (O60563 whole entry partner, species assumed): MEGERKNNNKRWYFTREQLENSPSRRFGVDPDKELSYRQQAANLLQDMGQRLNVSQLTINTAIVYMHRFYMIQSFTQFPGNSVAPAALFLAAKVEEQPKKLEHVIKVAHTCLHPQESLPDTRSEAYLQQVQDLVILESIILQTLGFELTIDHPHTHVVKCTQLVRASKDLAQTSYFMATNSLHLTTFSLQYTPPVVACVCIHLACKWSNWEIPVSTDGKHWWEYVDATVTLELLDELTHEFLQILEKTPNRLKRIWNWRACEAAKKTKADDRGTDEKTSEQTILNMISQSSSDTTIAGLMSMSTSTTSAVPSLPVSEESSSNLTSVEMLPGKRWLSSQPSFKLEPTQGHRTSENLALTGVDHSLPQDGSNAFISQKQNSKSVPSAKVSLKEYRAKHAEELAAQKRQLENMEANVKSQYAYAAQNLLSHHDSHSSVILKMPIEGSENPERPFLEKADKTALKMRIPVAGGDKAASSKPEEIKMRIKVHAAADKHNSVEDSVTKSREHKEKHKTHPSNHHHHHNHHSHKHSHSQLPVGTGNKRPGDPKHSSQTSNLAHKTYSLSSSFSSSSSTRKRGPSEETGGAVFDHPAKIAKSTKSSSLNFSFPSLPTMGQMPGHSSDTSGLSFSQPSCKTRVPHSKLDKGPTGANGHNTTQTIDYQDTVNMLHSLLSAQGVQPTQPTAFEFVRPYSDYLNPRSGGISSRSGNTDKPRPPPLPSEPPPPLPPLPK
Chain of CDK7/cyclin H/MAT1 complex (P50613 whole entry, species assumed): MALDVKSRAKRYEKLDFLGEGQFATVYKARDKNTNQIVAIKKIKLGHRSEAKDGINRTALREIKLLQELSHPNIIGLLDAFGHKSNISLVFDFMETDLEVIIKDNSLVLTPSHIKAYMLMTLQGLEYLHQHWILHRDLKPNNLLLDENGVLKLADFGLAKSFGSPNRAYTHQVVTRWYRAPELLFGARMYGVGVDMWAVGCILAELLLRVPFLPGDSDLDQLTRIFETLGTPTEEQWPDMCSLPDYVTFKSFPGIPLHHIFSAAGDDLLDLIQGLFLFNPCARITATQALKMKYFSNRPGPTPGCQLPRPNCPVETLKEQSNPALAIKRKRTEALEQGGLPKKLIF
Chain of CDK7/cyclin H/MAT1 complex (P51946 whole entry partner, species assumed): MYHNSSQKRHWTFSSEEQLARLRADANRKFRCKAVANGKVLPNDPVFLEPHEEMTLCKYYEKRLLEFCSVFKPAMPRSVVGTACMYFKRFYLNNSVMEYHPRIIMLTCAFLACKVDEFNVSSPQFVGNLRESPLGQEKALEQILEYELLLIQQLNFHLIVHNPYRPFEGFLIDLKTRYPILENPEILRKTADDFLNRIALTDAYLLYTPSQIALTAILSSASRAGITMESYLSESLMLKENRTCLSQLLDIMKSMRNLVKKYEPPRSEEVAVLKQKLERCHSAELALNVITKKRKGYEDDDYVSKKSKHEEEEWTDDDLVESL
Chain of CDK7/cyclin H/MAT1 complex (P51948 whole entry partner, species assumed): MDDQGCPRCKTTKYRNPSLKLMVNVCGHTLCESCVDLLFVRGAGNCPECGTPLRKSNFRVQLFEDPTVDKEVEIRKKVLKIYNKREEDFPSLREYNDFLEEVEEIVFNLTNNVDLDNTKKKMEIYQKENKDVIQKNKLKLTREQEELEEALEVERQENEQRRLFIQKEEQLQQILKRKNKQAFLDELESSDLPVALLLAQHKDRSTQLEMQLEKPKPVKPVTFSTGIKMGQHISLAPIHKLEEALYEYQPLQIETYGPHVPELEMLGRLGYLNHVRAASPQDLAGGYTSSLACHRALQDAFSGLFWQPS

As for `CC[C@H]1COCCN1c1ccc2c(-c3nc(N[C@H]4CCCNC4)ncc3C(F)(F)F)c[nH]c2n1` [Compound 104, 4-(6-((S)-3-ethylmorpholinyl)-1H-pyrrol[2,3-b]pyridin-3-yl)-N—((S)-piperidin-3-yl)-5-(trifluoromethyl)pyrimidine-2-amine formate], the half-maximal inhibitory concentration (IC50) came out at 5.85 nM in test [1]; 4.97 nM in the test with HCC70 cells; 5.37 nM in the test with A2780 cells; 2750 nM on CDK9/CyclinT1; 1550 nM at CDK2/cyclin E1 complex; 773 nM in test [2].
On to `FC(F)(F)c1cnc(N[C@H]2CCCNC2)nc1-c1c[nH]c2nc(C3=CCCCO3)ccc12` [Compound 109, (S)-4-(6-(3,4-dihydropyran-6-yl)-1H-pyrrol[2,3-b]pyridin-3-yl)-N-(piperidin-3-yl)-5-(trifluoromethyl)pyrimidine-2-amine], for which the IC50 in test [1] turned out to be 5.62 nM; with HCC70 cells, 3.98 nM; in the test with A2780 cells it was 5.61 nM; at CDK9/CyclinT1, 2870 nM; on CDK2/cyclin E1 complex, 2150 nM; in test [2] it was 1000 nM.
`CC1COCCC1c1ccc2c(-c3nc(N[C@H]4CCCNC4)ncc3C(F)(F)F)c[nH]c2n1` (stereo partly drawn) [Compound 110, 4-(6-(3-methyltetrahydropyran-4-yl)-1H-pyrrol[2,3-b]pyridin-3-yl)-N—((S)-piperidin-3-yl)-5-(trifluoromethyl)pyrimidine-2-amine formate]: the IC50 in test [1] amounted to 3.48 nM; with HCC70 cells it was 38.6 nM; in the test on A2780 cells, 38.6 nM; on CDK9/CyclinT1 it was 4260 nM; at CDK2/cyclin E1 complex it was 2180 nM; in test [2], 1610 nM.
`CP(C)(=O)c1ccc2c(-c3nc(N[C@H]4CCCNC4)ncc3C(F)(F)F)c[nH]c2n1` [Compound 114, (S)-dimethyl(3-(2-(piperidine-3-amino)-5-(trifluoromethyl)pyrimidin-4-yl)-1H-pyrrolo[2,3-b]pyridin-6-yl)phosphine oxide formate]: the IC50 in test [1] amounted to 6.73 nM; with HCC70 cells, 18.1 nM; with A2780 cells, 17.6 nM; at CDK9/CyclinT1, 2470 nM; at CDK2/cyclin E1 complex, 1720 nM; in test [2] it was 1210 nM.
Regarding `C[C@@H]1CNC[C@@H](Nc2ncc(C(F)(F)F)c(-c3c[nH]c4nc(N5CCOC[C@@H]5C)ccc34)n2)C1` [Compound 115, 4-(6-((S)-3-methylmorpholinyl)-1H-pyrrol[2,3-b]pyridin-3-yl)-N-((3S,5S)-5-methylpiperidin-3-yl)-5-(trifluoromethyl)pyrimidine-2-amine], the IC50 in test [1] is 9.52 nM; in the test on HCC70 cells, 42 nM; in the test on A2780 cells it was 45.5 nM; on CDK9/CyclinT1 it was 27700 nM; on CDK2/cyclin E1 complex it was 19500 nM; in test [2], 12900 nM.

The IC50 is the concentration that gives 50% inhibition.

(Values after patent US20240132489A1, “AROMATIC HETEROCYCLIC COMPOUND, PHARMACEUTICAL COMPOSITION, AND USE THEREOF” (GT APEIRON THERAPEUTICS LIMITED, priority 2020, published 2024).)
